{"source": "patent US12465608B2", "about": "“Osimertinib for use in the treatment of non-small cell lung cancer” (AstraZeneca AB, priority 2019, dated 2025)", "origin": "cited, not measured here", "key": {"[1]": {"system": "patients with EGFR mutation-positive NSCLC"}, "[2]": {"system": "patients with advanced mutation-positive EGFR (Ex19del or L858R) NSCLC", "conditions": "for median progression free survival (PFS): first-line therapy, FLAURA"}, "[3]": {"system": "patients with advanced EGFR mutation-positive NSCLC who were never- or light-former smokers", "conditions": "erlotinib combined with carboplatin plus paclitaxel; subgroup of patients with EGFR mutations"}}, "data": [{"smiles": "COc1cc2ncnc(Nc3ccc(F)c(Cl)c3)c2cc1NC(=O)/C=C/CN1CCCCC1", "note": "[dacomitinib, (2E)-N-{4-[(3-chloro-4-fluorophenyl)amino]-7-methoxyquinazolin-6-yl}-4-(piperidin-1-yl)but-2-enamide]", "values": [{"measurement": "PFS hazard ratio (HR)", "setting": "[1]; dacomitinib vs gefitinib, 95% CI 0.47-0.74, p<0.0001", "result": 0.59}, {"measurement": "median PFS", "setting": "[1]; first line treatment, EGFR mutation-positive NSCLC", "result": 14.7, "unit": "months"}]}, {"smiles": "C#Cc1cccc(Nc2ncnc3cc(OCCOC)c(OCCOC)cc23)c1", "note": "[erlotinib]", "values": [{"measurement": "median progression free survival (PFS)", "setting": "[2]", "result": 10.2, "unit": "months"}, {"measurement": "side effects, combination vs erlotinib monotherapy", "setting": "[3]", "result": "more side effects"}]}, {"smiles": "C=CC(=O)Nc1cc(Nc2nccc(-c3cn(C)c4ccccc34)n2)c(OC)cc1N(C)CCN(C)C", "note": "[osimertinib, N-(2-{2-dimethylaminoethyl-methylamino}-4-methoxy-5-{[4-(1-methylindol-3-yl)pyrimidin-2-yl]amino}phenyl) prop-2-enamide]", "values": [{"measurement": "median progression free survival (PFS)", "setting": "[2]", "result": 18.9, "unit": "months"}, {"measurement": "events of CNS progression, patients", "setting": "[2]; irrespective of known or treated CNS metastases at trial entry", "result": 6, "unit": "%"}, {"measurement": "PFS hazard ratio (HR)", "setting": "[2]; osimertinib vs erlotinib or gefitinib, 95% CI 0.37, 0.57, p<0.0001", "result": 0.46}, {"measurement": "median CNS PFS", "setting": "[2]; patients with CNS metastases on a baseline brain scan", "result": "not reached"}, {"measurement": "reduction in the risk of CNS progression", "setting": "[2]; patients with CNS metastases on a baseline brain scan, vs standard EGFR-TKIs", "result": 52, "unit": "%"}, {"measurement": "CNS PFS HR", "setting": "[2]; patients with CNS metastases on a baseline brain scan, vs standard EGFR-TKIs, 95% CI 0.26-0.86, p=0.014", "result": 0.48}]}]}
